# From patent US7834023B2 (Portola Pharmaceuticals, Inc., priority 2006, dated 2010)
# Molecular target: T1, P2Y12 receptor (Homo sapiens, UniProt Q9H244)
# T1 construct: endogenous in cells; host or cells: human platelets (outdated from blood banks or fresh), apyrase-washed, whole
# Assay: platelet ADP receptor binding assay (ARB): inhibition of [3H]2-MeS-ADP binding to platelets
# Settings: [3H]2-MeS-ADP binding to apyrase-washed human platelets
# In short: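 Apyrase-washed human platelets (1×10^8 per well) were preincubated 5 min with serial compound dilutions in Hepes-Tyrode's/0.1% BSA/0.6% DMSO, then incubated 15 min at room temperature with 1 nM [3H]2-MeS-ADP. Filter-bound radioactivity gave specific binding (nonspecific: 10 μM 2-MeS-ADP), and IC50s came from non-linear regression.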
# T1 sequence (Q9H244 whole entry): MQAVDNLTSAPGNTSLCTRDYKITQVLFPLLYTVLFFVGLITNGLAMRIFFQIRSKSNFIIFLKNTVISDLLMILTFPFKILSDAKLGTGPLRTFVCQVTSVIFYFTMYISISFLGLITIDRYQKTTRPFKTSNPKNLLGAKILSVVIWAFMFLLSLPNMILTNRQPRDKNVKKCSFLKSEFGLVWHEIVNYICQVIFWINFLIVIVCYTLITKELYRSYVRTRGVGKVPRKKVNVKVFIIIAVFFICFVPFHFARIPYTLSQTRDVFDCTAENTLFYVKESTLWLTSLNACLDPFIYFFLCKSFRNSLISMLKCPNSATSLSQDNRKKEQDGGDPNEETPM
row,SMILES,IC50 [nM]
1,"CNc1cc2[nH]c(=O)n(-c3ccc(C(=O)NC(C(=O)O)c4ccc(Cl)s4)c(OC)c3)c(=O)c2cc1F (stereo not shown) [Compound 42, 2-(5-chlorothiophen-2-yl)-2-(4-(6-fluoro-7-(methylamino)-2,4-dioxo-1,2-dihydroquinazolin-3(4H)-yl)-2-methoxybenzamido)acetic acid]",> 500
2,N#Cc1ccc2c(=O)n(-c3ccc(C(=O)NC(C(=O)O)c4cccs4)cc3)ccc2c1 (stereo not shown) [Compound 95],> 500
3,CNc1cc2[nH]c(=O)n(-c3ccc(C(=O)NC(C(=O)OC)c4ccc(Cl)s4)cc3)c(=O)c2cc1F (stereo not shown) [Compound 18],> 500
4,"CNc1cc2[nH]c(=O)n(-c3ccc(CN(CC(=O)O)C(=O)c4ccc(Cl)s4)cc3)c(=O)c2cc1F [Compound 103, 2-(5-chloro-N-(4-(6-fluoro-7-(methylamino)-2,4-dioxo-1,2-dihydroquinazolin-3(4H)-yl)benzyl)thiophene-2-carboxamido)acetic acid]",> 500
5,"CNc1cc2c(=O)n(-c3ccc(C(=O)NC(c4nnn[nH]4)c4ccc(Cl)s4)cc3)c(=O)[nH]c2cc1F (stereo not shown) [Compound 49, N-((5-chlorothiophen-2-yl)(1H-tetrazol-5-yl)methyl)-4-(7-fluoro-6-(methylamino)-2,4-dioxo-1,2-dihydroquinazolin-3(4H)-yl)benzamide]",> 500
6,"CNc1cc2[nH]c(=O)n(-c3ccc(C(=O)NC(c4cccc(OC)c4)c4nnn[nH]4)cc3)c(=O)c2cc1F (stereo not shown) [Compound 23, 4-(6-fluoro-7-(methylamino)-2,4-dioxo-1,2-dihydroquinazolin-3(4H)-yl)-N-((3-methoxyphenyl)(1H-tetrazol-5-yl)methyl)benzamide]",> 500
7,"CCc1ccc2c(c1)C(=O)N(c1ccc(C(=O)NC(C(=O)O)c3ccc(Cl)s3)cc1)CO2 (stereo not shown) [Compound 72, 2-(5-chlorothiophen-2-yl)-2-(4-(6-ethyl-4-oxo-2H-benzo[e][1,3]oxazin-3(4H)-yl)benzamido)acetic acid]",> 500
8,"CNc1cc2c(cc1F)C(=O)N(c1ccc(C(=O)N[C@H](C(=O)O)c3ccccc3)cc1)CO2 [Compound 65, (S)-2-(4-(6-fluoro-7-(methylamino)-4-oxo-2H-benzo[e][1,3]oxazin-3(4H)-yl)benzamido)-2-phenylacetic acid]",50 to 500
9,"CNc1cc2c(cc1F)C(=O)N(c1ccc(C(=O)NC(Cc3ccc(Cl)s3)C(=O)O)cc1)CO2 (stereo not shown) [Compound 57, 3-(5-chlorothiophen-2-yl)-2-(4-(6-fluoro-7-(methylamino)-4-oxo-2H-benzo[e][1,3]oxazin-3(4H)-yl)benzamido)propanoic acid]",50 to 500

# Results, then the compound that gave them:
row,IC50 [nM],SMILES
1,50 to 500,"CNc1cc2c(cc1F)C(=O)N(c1ccc(C(=O)NC(c3ccc(Cl)s3)c3nc(C)cs3)cc1)CO2 (stereo not shown) [Compound 85, N-((5-chlorothiophen-2-yl)(4-methylthiazol-2-yl)methyl)-4-(6-fluoro-7-(methylamino)-4-oxo-2H-benzo[e][1,3]oxazin-3(4H)-yl)benzamide]"
2,50 to 500,"CNc1cc2c(cc1F)C(=O)N(c1ccc(C(=O)NC(C(=O)O)c3ccccc3)cc1)CO2 (stereo not shown) [Compound 58, 2-(4-(6-fluoro-7-(methylamino)-4-oxo-2H-benzo[e][1,3]oxazin-3(4H)-yl)benzamido)-2-phenylacetic acid]"
3,50 to 500,"CNc1cc2[nH]c(=O)n(-c3ccc(CNC(CC(=O)O)c4ccc(Cl)s4)cc3)c(=O)c2cc1F (stereo not shown) [Compound 104, 3-(5-chlorothiophen-2-yl)-3-(4-(6-fluoro-7-(methylamino)-2,4-dioxo-1,2-dihydroquinazolin-3(4H)-yl)benzylamino)propanoic acid]"
4,50 to 500,"CNc1cc2c(cc1F)C(=O)N(c1ccc(CC(=O)NC(C(N)=O)c3ccc(Cl)s3)cc1)CO2 (stereo not shown) [Compound 122, N-(2-amino-1-(5-chlorothiophen-2-yl)-2-oxoethyl)-2-(4-(6-fluoro-7-(methylamino)-4-oxo-2H-benzo[e][1,3]oxazin-3(4H)-yl)phenyl)acetamide]"
